The record followed here is patent US9737493B2, “Compositions and methods for modulating DNMT1 inhibitor activity” (University of Louisville Research Foundation, Inc., priority 2012, dated 2017).

One data set deals with MDA-MB-231 cells. Description: Clonogenic cell survival assay. The class given is cell-based, human. The following applies: MDA-MB-231, NAC and GSH 5 mM, AA 100 μM, 10 days.
For data set [1], the system named is A549 cells. Type of data set: cell-based. The settings on record: for effect of antioxidant on XB05-induced cell death: A549, annexin/PI, in combination with XB05, 72 h. As for the experimental part:
Some cells were treated with buthionine sulfoximine (BSO, 200 μM) plus diethyl maleate (DEM, 1 mM) for 3 h as a positive control for GSH depletion. Bar graph indicates mean+/−SEM from three independent experiments. […] Membranes were stripped and reprobed for Ku-70 as a loading control.
Flow Cytometric Assays. Analyses were performed using a FACScalibur flow cytometer (BD Biosciences, Mountain View, Calif.) and FlowJo software (Tree Star, Inc., Ashland, Oreg.). Cells were treated as indicated in the figures and in the Brief Description of the Drawings. Cells were harvested by using TrypLE Cell Dissociation Reagent (Life Technologies). For cell death analyses, cells (adherent and detached cells) were stained with annexin-V-FITC and propidium iodide (PI) using the Apoptosis Detection Kit (BD Biosciences, San Jose, Calif.), according to the manufacturer's instructions. For cell-cycle distribution, cells were fixed, and stained with PI using the Cycle Test Plus kit (Becton Dickinson, Franklin Lakes, N.J.). For detection of γ-H2AX, cells were washed with PBS and fixed in 4% paraformaldehyde in PBS for 10 min at 37° C. […] After washing with PBS, cells were re-suspended in PBS containing 1 μg/mL PI to allow exclusion of non-viable cells. For detection of mitochondrial superoxide, cells were harvested, washed with PBS and stained with 5 μM MitoSOX™ Red (Life Technologies) in warm PBS for 10 min at 37° C. Cells were then washed twice with PBS, re-suspended at a density of 1×10^6 cells/mL in PBS and analyzed by flow cytometry.

Data set [2] concerns A549 non-small cell lung cancer cells. Description: MTT cell proliferation assay. The settings on record: A549, MTT, in combination with XB05, 72 h. The class given is cell-based, human. As for the experimental part:
(§1) Cell Proliferation Assays. The antiproliferative activity of XB05 was tested using a previously published 3-(4,5-dimethylthiazol-2-yl)-2,5-diphenyltetrazolium bromide (MTT) assay protocol (Girvan et al., “AGRO100 inhibits activation of nuclear factor-kappaB (NF-kappaB) by forming a complex with NF-kappaB essential modulator (NEMO) and nucleolin” Molecular Cancer Therapeutics (2006) Vol. 5, No. 7, pp. 1790-1799). Briefly, cells were seeded in quadruplicate wells in 96-well plates and allowed to adhere overnight. […] Plates were incubated with XB05 for 72 h, during which the cell culture medium was not changed. Cell viability was determined and the background corresponding to medium alone (no cells) was subtracted. Data were analyzed as described in the Brief Description of the Drawings.
(§2) XB05 has Cancer-Selective Antiproliferative Activity. XB05 was tested to determine its antiproliferative activity in a variety of human cell lines that are derived from malignant tissues or from non-malignant (immortalized but not transformed) cells and listed in FIG. 1B. As described in Materials and Methods, cells were treated with varying concentrations of XB05 for 72 h and evaluated using the MTT cell proliferation assay.

For data set [3], the system named is U937 myeloid leukemia cells. Description: MTT cell proliferation assay. The class given is cell-based, human. The settings on record: U937, MTT and flow cytometric assays, in combination with XB05, 72 h. Here is the method: as §1, §2
The test system of data set [4] is A549 cells. The following applies: A549, in combination with XB05, 10 days.
Procedure: (C) Clonogenic cell survival assays were conducted in A549 cells treated as indicated and grown in culture for 10 days (see Methods). Bar graph indicates mean values (+/−SEM) for colony growth inhibition from 3 independent experiments. […] Clonogenic Assays. Cells were plated at low density (300 cells/well) in 6-well tissue culture plates, and allowed to adhere overnight. Where indicated, the medium was then replaced with fresh medium containing antioxidants or vehicle (sterile ultrapure H2O). XB05 or vehicle control (DMSO) was then added directly to the medium at the concentrations indicated. After 10 days, cells were fixed with 4% paraformaldehyde in PBS and stained with Accustain Crystal Violet Solution (Sigma Aldrich) washed and air-dried. Colonies were counted using the cell counter feature in the Image J software, available from the National Institute of Health (<<rsbweb.nih.gov/ij/download.html>>).
Data set [5] concerns U937 cells. The experiment in a line: Clonogenic cell survival assay. The class given is cell-based, human. The following applies: U937, 100 μM BHA, data not shown.
Data set [6] concerns U937 cells. The experiment in a line: Annexin/PI flow cytometric cell death analysis. Type of data set: cell-based, human. The following applies: U937, 50 and 100 μM BSO, 1 μM XB05, 72 h. As for the experimental part:
Data shown are representative of three independent experiments. (B) The cell lines indicated were treated with DMSO vehicle or XB05 (1 μM for U937 and Hs27, or 2 μM for A549) for the timepoints indicated. (C) The cell lines indicated were treated with DMSO vehicle, XB05 (1 μM for U937 and Hs27, or 2 μM for A549) or Thapsigargin positive control (2 μM) for 24 h. Densitometry was performed to quantify western blot band intensities for phospho-eIF2α (ser51), total eIF2α and BiP (representative blot shown in FIG. 8D). All values were normalized to DMSO vehicle control. Bar graphs indicate the average band intensity for three independent experiments, +/−the standard error of the mean. Statistical significance for XB05 compared to vehicle is indicated (*p≦0.05 and **p≦0.01).
Flow Cytometric Assays. Analyses were performed using a FACScalibur flow cytometer (BD Biosciences, Mountain View, Calif.) and FlowJo software (Tree Star, Inc., Ashland, Oreg.). Cells were treated as indicated in the figures and in the Brief Description of the Drawings. Cells were harvested by using TrypLE Cell Dissociation Reagent (Life Technologies). […] Cells were then washed twice with PBS, re-suspended at a density of 1×10^6 cells/mL in PBS and analyzed by flow cytometry.

The test system of the next data set is Colo-205 xenografts. Description: Colo-205 xenografts in nude mice. The class given is in vivo. The settings on record: 25 mg/kg daily for 21 days, i.v.

Procedure for MDA-MB-231 cells: Clonogenic cell survival assays were conducted with MDA-MB-231 cells treated as indicated and grown in culture for 10 days (see Methods). Clonogenic Assays. Cells were plated at low density (300 cells/well) in 6-well tissue culture plates, and allowed to adhere overnight. Where indicated, the medium was then replaced with fresh medium containing antioxidants or vehicle (sterile ultrapure H2O). XB05 or vehicle control (DMSO) was then added directly to the medium at the concentrations indicated. After 10 days, cells were fixed with 4% paraformaldehyde in PBS and stained with Accustain Crystal Violet Solution (Sigma Aldrich) washed and air-dried. Colonies were counted using the cell counter feature in the Image J software, available from the National Institute of Health (<<rsbweb.nih.gov/ij/download.html>>).

`O=C1O[C@H]([C@@H](O)CO)C(O)=C1O` [AA, L-ascorbic acid]: in the data set with MDA-MB-231 cells, the “protection from cytotoxic effects of XB05” value was “not”. In the data set with A549 cells [1], the “effect of antioxidant on XB05-induced cell death” value was “slightly enhanced the pro-apoptotic activity of XB05”. The “effect of antioxidant on antiproliferative effects of XB05” value (shortened to “effect of antioxidant … of XB05”) in data set [2] was “no effect”. The “protection from antiproliferative and cytotoxic effects of XB05” value in data set [3] is “not”. Besides, in the data set on A549 cells [4], the “effect of antioxidant on XB05 effect on clonogenic survival” value (shortened to “effect of antioxidant on XB05 effect”) is “no protective effect”.

`COc1ccc(O)c(C(C)(C)C)c1` [BHA, butylated hydroxyanisole]: the “protection from XB05 activity” value in the data set on U937 cells [5] is recorded as “no protective effect”.

With `CCCCS(=N)(=O)CCC(N)C(=O)O` (centres unmarked) [BSO, buthionine sulfoximine], the “cytotoxicity of BSO plus XB05 compared to XB05 alone” value in the data set with U937 cells [6] is “enhanced cytotoxicity compared to XB05 treatment alone”; with A549 cells [1] (A549, 50 and 100 μM BSO, 2 μM XB05, 72 h), “enhanced cytotoxicity compared to XB05 treatment alone”.

As for `N[C@@H](CCC(=O)N[C@@H](CS)C(=O)NCC(=O)O)C(=O)O` [GSH, reduced glutathione], the “protection from cytotoxic effects of XB05” value in the data set with MDA-MB-231 cells is recorded as “protect these cells from the cytotoxic effects of XB05”. Besides, the “effect of antioxidant on XB05-induced cell death” value in the data set on A549 cells [1] is “protected cells from XB05-induced apoptosis and nonapoptotic cell death”. In addition, in data set [2], the “effect of antioxidant … of XB05” value was “diminish the antiproliferative effects of XB05”. Moreover, in data set [3], the “protection from antiproliferative and cytotoxic effects of XB05” value was “protect these cells from the antiproliferative and cytotoxic effects of XB05”. Besides, the “effect of antioxidant on XB05 effect” value with A549 cells [4] was “abrogated the effect of XB05 on clonogenic survival”.

Take `CC/C=C\CCC(O)C#CC(F)(F)Br` (centres unmarked) [LD-01-072]: in the data set with Colo-205 xenografts, the “in vivo antitumor efficacy” value is listed as “in vivo antitumor efficacy” and the “non-specific toxicity judged by body weight” value is listed as “no evidence of any severe non-specific toxicities”.

`CC(=O)N[C@@H](CS)C(=O)O` [NAC, N-acetyl cysteine]: the “protection from cytotoxic effects of XB05” value in the data set with MDA-MB-231 cells is given as “protect these cells from the cytotoxic effects of XB05”. Further, the “effect of antioxidant on XB05-induced cell death” value in the data set with A549 cells [1] was “protected cells from XB05-induced apoptosis and nonapoptotic cell death”. In data set [2], the “effect of antioxidant … of XB05” value is recorded as “diminish the antiproliferative effects of XB05”. The “protection from antiproliferative and cytotoxic effects of XB05” value in data set [3] was “protect these cells from the antiproliferative and cytotoxic effects of XB05”. In addition, in the data set with A549 cells [4], the “effect of antioxidant on XB05 effect” value is given as “abrogated the effect of XB05 on clonogenic survival”.
